According to PMC10307035, “Antiviral activity of singlet oxygen-photogenerating perylene compounds against SARS-CoV-2: Interaction with the viral envelope and photodynamic virion inactivation” (Virus Research, 2023):
Read-outs that look alike come from different tables or passages of the source.

Assays:
Type in all cases: cell-based
[1] = tested on: SARS-CoV-2 (Wuhan variant); test: microbe, parasite or virus in culture; conditions: for inhibition of SARS-CoV-2 replication in virus-infected cells: 2 and 10 µM, Vero cells
[2] = tested on: SARS-CoV-2 variants Alpha (B.1.1.7), Beta (B.1.351), Gamma (p.1), Delta (B.1.617.2), and Omicron (B.1.1.529); conditions: 1 and 10 µM, 48 h, Vero cells
[3] = tested on: SARS-CoV-2 (Wuhan variant); test: Virucidal activity against SARS-CoV-2 (plaque assay); conditions: 10 µM, 120 min at 37 °C in the dark
[4] = Severe acute respiratory syndrome coronavirus 2, Vero, 48 h, read-out: App. EC50
[5] = Severe acute respiratory syndrome coronavirus 2, Vero, read-out: EC50

Row | SMILES | EC50 [1, 4] | EC50 [1, 5] | EC50 ([1]; read-out: EC50) | replication of all tested SARS-CoV-2 variants [2] | inhibition of SARS-CoV-2 replication in virus-infected cells [1] | virucidal effect against SARS-CoV-2 (ranking) [3]
1 | O=c1[nH]c(=O)n([C@@H]2O[C@H](CO)[C@@H](O)[C@@H]2O)cc1C#Cc1ccc2c3cccc4cccc(c5cccc1c52)c43 [Compound 1, 5-(perylen-3-yl)ethynyl-arabino-uridine] | 1.12 µM | 0.406 µM | 0.406 µM | – | – | –
2 | O=c1[nH]c(=O)n([C@H]2C[C@H](O)[C@@H](CO)O2)cc1C#Cc1ccc2c3cccc4cccc(c5cccc1c52)c43 [Compound 2, 5-(perylen-3-yl)ethynyl-2′-deoxy-uridine] | 0.843 µM | 0.256 µM | 0.256 µM | efficiently inhibited | – | –
3 | O=c1[nH]cc(C#Cc2ccc3c4cccc5cccc(c6cccc2c63)c54)c(=O)[nH]1 [Compound 3] | > 5 µM | > 2.5 µM | – | – | – | –
4 | Cn1cc(C#Cc2ccc3c4cccc5cccc(c6cccc2c63)c54)c(=O)n(C)c1=O [Compound 4] | 2.06 µM | 0.406 µM | 0.406 µM | – | – | –
5 | CC(C)(C)C(=O)OCn1c(=O)c(C#Cc2ccc3c4cccc5cccc(c6cccc2c63)c54)cn(CC(=O)O)c1=O [Compound 5] | > 5 µM | ~2 µM | 2.05 µM | – | – | –
6 | CC(C)(C)C(=O)OCn1c(=O)c(C#Cc2ccc3c4cccc5cccc(c6cccc2c63)c54)cn(CC(=O)NCCCCO)c1=O [Compound 6] | 0.781 µM | 0.0915 µM | – | – | – | –
7 | CC(C)(C)C(=O)OCn1c(=O)c(C#Cc2ccc3c4cccc5cccc(c6cccc2c63)c54)cn(CC(=O)NC[C@@H](O)C(C)(C)CO)c1=O [Compound 7] | 1.17 µM | 0.417 µM | – | – | complete inhibition | –
8 | CCCCNC(=O)Cn1cc(C#Cc2ccc3c4cccc5cccc(c6cccc2c63)c54)c(=O)n(COC(=O)C(C)(C)C)c1=O [Compound 8] | > 5 µM | ~2 µM | – | – | – | –
9 | CC(C)(C)C(=O)OCn1c(=O)c(C#Cc2ccc3c4cccc5cccc(c6cccc2c63)c54)cn(CC(=O)NCCO)c1=O [Compound 9] | 0.781 µM | 0.14 µM | – | – | – | –
10 | CC(C)(C)C(=O)OCn1c(=O)c(C#Cc2ccc3c4cccc5cccc(c6cccc2c63)c54)cn(CC(=O)NCCCO)c1=O [Compound 10] | 1.93 µM | 0.382 µM | – | – | – | –
11 | CC(C)(C)C(=O)OCn1c(=O)c(C#Cc2ccc3c4cccc5cccc(c6cccc2c63)c54)cn(CC(=O)NCCCCCO)c1=O [Compound 11] | 1.07 µM | 0.433 µM | – | – | – | –
12 | CC(C)(C)C(=O)OCn1c(=O)c(C#Cc2ccc3c4cccc5cccc(c6cccc2c63)c54)cn(CC(=O)NCCCCCCO)c1=O [Compound 12] | > 5 µM | 0.812 µM | 0.812 µM | – | – | –
13 | CC(C)(C)C(=O)OCn1c(=O)c(C#Cc2ccc3c4cccc5cccc(c6cccc2c63)c54)cn(CC(=O)N(CCO)CCO)c1=O [Compound 13] | 0.622 µM | 0.274 µM | – | efficiently inhibited | complete inhibition | –
14 | CN(C)c1ccc(C#Cc2ccc3c4cccc5cccc(c6cccc2c63)c54)cc1 [Compound 14] | > 5 µM | > 2.5 µM | – | – | – | –
15 | CC(=O)Nc1ccc(C#Cc2ccc3c4cccc5cccc(c6cccc2c63)c54)cc1 [Compound 15] | 0.325 µM | 0.063 µM | 0.0631 µM | – | – | –
16 | O=C(O)c1ccc(-c2ccc3c4cccc5cccc(c6cccc2c63)c54)s1 [Compound 16] | 2.56 µM | 0.536 µM | 0.537 µM | – | – | –
17 | O=C(NCCCCO)c1ccc(-c2ccc3c4cccc5cccc(c6cccc2c63)c54)s1 [Compound 17] | < 0.004 µM | < 0.004 µM | – | efficiently inhibited | – | strongest virucidal effect
18 | O=C(c1ccc(-c2ccc3c4cccc5cccc(c6cccc2c63)c54)s1)N(CCO)CCO [Compound 18] | 0.132 µM | 0.019 µM | 0.0191 µM | – | – | –
19 | CCCCNC(=O)c1ccc(-c2ccc3c4cccc5cccc(c6cccc2c63)c54)s1 [Compound 19] | 0.47 µM | 0.098 µM | 0.0982 µM | – | – | –
20 | O=C(O)c1ccc2c3cccc4cccc(c5cccc1c52)c43 [Compound 20] | > 5 µM | > 2.5 µM | – | – | – | –
